From patent US20260374773A1, “MULTI-CYCLIC IRAK AND FLT3 INHIBITING COMPOUNDS AND USES THEREOF” (CHILDREN'S HOSPITAL MEDICAL CENTER, priority 2022, published 2026) come the findings set out here.

Each structure is given as a SMILES string.

The term Kd denotes a measure of binding affinity in units of concentration. High values mean weaker binding, low ones tighter binding.

The target in the first assay is T1, FLT3 Autoinh. (Homo sapiens, UniProt P36888).
T1 sequence (P36888 27-993): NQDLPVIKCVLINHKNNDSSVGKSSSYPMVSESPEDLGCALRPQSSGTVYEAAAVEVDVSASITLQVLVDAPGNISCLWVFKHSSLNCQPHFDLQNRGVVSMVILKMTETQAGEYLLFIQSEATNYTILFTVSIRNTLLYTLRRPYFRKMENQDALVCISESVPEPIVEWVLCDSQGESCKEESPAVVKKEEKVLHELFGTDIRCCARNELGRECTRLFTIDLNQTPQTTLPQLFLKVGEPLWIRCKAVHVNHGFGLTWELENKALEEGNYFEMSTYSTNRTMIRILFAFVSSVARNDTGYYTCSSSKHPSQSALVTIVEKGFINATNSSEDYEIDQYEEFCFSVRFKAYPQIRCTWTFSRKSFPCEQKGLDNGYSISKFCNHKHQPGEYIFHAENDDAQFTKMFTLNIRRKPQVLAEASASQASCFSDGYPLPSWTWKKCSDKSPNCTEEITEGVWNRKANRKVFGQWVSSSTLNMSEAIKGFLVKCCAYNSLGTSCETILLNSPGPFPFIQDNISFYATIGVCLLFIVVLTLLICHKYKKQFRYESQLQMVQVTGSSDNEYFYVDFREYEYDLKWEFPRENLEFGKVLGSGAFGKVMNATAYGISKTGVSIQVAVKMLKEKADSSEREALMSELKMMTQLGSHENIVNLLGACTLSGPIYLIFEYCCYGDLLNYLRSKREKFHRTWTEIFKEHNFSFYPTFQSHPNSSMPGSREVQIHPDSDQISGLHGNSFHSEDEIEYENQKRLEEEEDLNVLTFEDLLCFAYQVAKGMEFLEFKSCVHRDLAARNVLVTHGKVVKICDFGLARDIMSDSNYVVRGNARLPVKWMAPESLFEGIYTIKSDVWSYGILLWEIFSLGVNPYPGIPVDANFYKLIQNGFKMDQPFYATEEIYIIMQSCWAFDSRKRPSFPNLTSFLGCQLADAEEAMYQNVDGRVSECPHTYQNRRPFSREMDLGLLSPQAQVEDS
The assay is described as follows: DiscoverX KINOMEscan active site-directed competition binding, FLT3 Autoinh. The settings on record: Table 13; no ATP.
Source text: (§1) Kinase binding data were obtained for various exemplary compounds prepared according to Examples 1-8 using the DiscoverX KINOMEscan® active site-directed competition binding site-directed assay protocol described below. […] As a result, the data report thermodynamic interaction affinities (Kd values), rather than IC50 values that are dependent on ATP concentrations. The assay uses a DNA-tagged version of the protein kinase, and an immobilized ligand bound to a solid support. Compounds that directly or indirectly prevent kinase binding to the immobilized ligand reduce the amount of kinase captured on the solid support, which is detected using an ultra-sensitive qPCR method. Affinity constants reported from the assay have been reported to be independent of the immobilized ligand used that is coupled to the solid support (See supplemental information in Fabian, M. A. et. al., (2005) Nat. Biotechnol. 23, 329-336; Wodicka, L. M. et. al., (2010) Chem. Biol. 17, 1241-1249.)
Kinase-tagged T7 phage strains were prepared in an E. coli host derived from the BL21 strain. E. coli were grown to log-phase and infected with T7 phage and incubated with shaking at 32 °C until lysis. The lysates were centrifuged and filtered to remove cell debris. The remaining kinases were produced in HEK-293 cells and subsequently tagged with DNA for qPCR detection. Streptavidin-coated magnetic beads were treated with biotinylated small molecule ligands for 30 minutes at room temperature to generate affinity resins for kinase assays. The liganded beads were blocked with excess biotin and washed with blocking buffer (SeaBlock (Pierce), 1% BSA, 0.05% Tween 20, 1 mM DTT) to remove unbound ligand and to reduce non-specific binding. […] Test compounds were prepared as 111x stocks in 100% DMSO. Kds were determined using an 11-point 3-fold compound dilution series with three DMSO control points. All compounds for Kd measurements are distributed by acoustic transfer (non-contact dispensing) in 100% DMSO. The compounds were then diluted directly into the assays such that the final concentration of DMSO was 0.9%. All reactions were performed in polypropylene 384-well plates. Each was a final volume of 0.02 mL. The assay plates were incubated at room temperature with shaking for 1 hour and the affinity beads were washed with wash buffer (1×PBS, 0.05% Tween 20). The beads were then re-suspended in elution buffer (1×PBS, 0.05% Tween 20, 0.5 μM nonbiotinylated affinity ligand) and incubated at room temperature with shaking for 30 minutes. The kinase concentration in the eluates was measured by qPCR. Binding constants (Kds) were calculated with a standard dose-response curve using the Hill equation. The Hill Slope was set to −1. Curves were fitted using a non-linear least square fit with the Levenberg-Marquardt algorithm.
as §1, with “9-12” for “1-8”
Kinase-tagged T7 phage strains were prepared in an E. coli host derived from the BL21 strain. […]
`COc1cn2ncc(-c3nc(N[C@H]4CNCC[C@@H]4F)c(C#N)cc3F)c2nc1C(C)(C)O` [Compound 10, 5-fluoro-2-(((3S,4S)-4-fluoropiperidin-3-yl)amino)-6-(5-(2-hydroxypropan-2-yl)-6-methoxypyrazolo[1,5-a]pyrimidin-3-yl)nicotinonitrile] came in with a dissociation constant (Kd) of 5.4 nM.
Regarding `COc1cn2ncc(-c3nc(N[C@H]4CNCC[C@@H]4F)c(C#N)cc3F)c2nc1C1CC1` [Compound 7, 6-(5-cyclopropyl-6-methoxypyrazolo[1,5-a]pyrimidin-3-yl)-5-fluoro-2-(((3S,4S)-4-fluoropiperidin-3-yl)amino)nicotinonitrile], the Kd came out at 0.68 nM.
As to `COc1cn2ncc(-c3nc(N[C@H]4CNCC[C@@H]4F)c(F)cc3F)c2nc1C(C)(C)O` [Compound 13, 2-(3-(3,5-difluoro-6-(((3S,4S)-4-fluoropiperidin-3-yl)amino)pyridin-2-yl)-6-methoxypyrazolo[1,5-a]pyrimidin-5-yl)propan-2-ol], the Kd was found to be 3.7 nM.

The assay is the same for the next values; noted with them: Table 19; no ATP.
`COc1cn2ncc(-c3nc(N[C@@H]4CCCNC4)ncc3F)c2nc1C1CC1` [Compound 14a, (R)-4-(5-cyclopropyl-6-methoxypyrazolo[1,5-a]pyrimidin-3-yl)-5-fluoro-N-(piperidin-3-yl)pyrimidin-2-amine] displayed a Kd of 1.6 nM.
Regarding `COc1cn2ncc(-c3nc(N[C@H]4CNCC[C@@H]4F)ncc3F)c2nc1C(C)(C)O` [Compound 6a, 2-(3-(5-fluoro-2-(((3S,4S)-4-fluoropiperidin-3-yl)amino)pyrimidin-4-yl)-6-methoxypyrazolo[1,5-a]pyrimidin-5-yl)propan-2-ol], binding was put at a Kd of 4.8 nM.
The molecule `COc1cn2ncc(-c3nc(N[C@H]4CNCC[C@@H]4F)ncc3F)c2nc1C1CC1` [Compound 15a, 4-(5-cyclopropyl-6-methoxypyrazolo[1,5-a]pyrimidin-3-yl)-5-fluoro-N-((3S,4S)-4-fluoropiperidin-3-yl)pyrimidin-2-amine] had a Kd of 1.4 nM.
In turn, `COc1cn2ncc(-c3cncc(N[C@H]4CNCC[C@@H]4F)n3)c2nc1C1CC1` [Compound 12a, 6-(5-cyclopropyl-6-methoxypyrazolo[1,5-a]pyrimidin-3-yl)-N-((3S,4S)-4-fluoropiperidin-3-yl)pyrazin-2-amine] registered a Kd of 4.6 nM.
Turning to `COc1cn2ncc(-c3ccnc(N[C@H]4CNCC[C@@H]4F)n3)c2nc1C1CC1` [Compound 7a, 4-(5-cyclopropyl-6-methoxypyrazolo[1,5-a]pyrimidin-3-yl)-N-((3S,4S)-4-fluoropiperidin-3-yl)pyrimidin-2-amine], the affinity, expressed as Kd, was 12 nM.
